From patent publication US20110014185A1, “METHODS INVOLVING GRAF POLYPEPTIDES” (priority 2008, published 2011)
Entries after “also recorded” stand apart in the source; their conditions may differ.

Columns and labels:
HeLa cells [1] = experiment: GRAF1 localisation by immunofluorescent staining; assay type: cell-based, human; settings: for colocalisation of GRAF1 with focal complex markers / number of GRAF1-positive tubules: 40 uM Y-27632 for 40 minutes
Protocol: FIG. 8 GRAF1 mediated trafficking is dependent upon dynamin and small G-proteins. a, HeLa cells incubated either with medium including vehicle (DMSO) or 50 um dynasore for 15 minutes before addition of dextran to these, cells for a further 15 minutes, (with DMSO/dynasore concentrations being retained throughout), before fixation and staining for GRAF1, dextran and paxillin. […] Note the absence of GRAF1-positive tubules in transfected cells. Scale bars=10 um. […] Note that endogenous GRAF1 tubes originate from within rings of beta1-integrins (a). […] Protein expression and purification Antibodies and constructs used are described in supplemental methods. Recombinant proteins were expressed in a BL21 (DE3) pLysS E-coli strain as Glutathione Stransferase (GST)-fusion proteins and purified using glutathione-Sepharose 4B beads (Amersham Biosciences) and gel filtration on a sephacryl S-200 column (Amersham) as previously described27. For analysis of endogenous protein expression, cell lines were grown according to instructions from American Tissue Culture Collection, harvested and lysed in 1% NP-40 in PBS supplemented with protease inhibitors. After a 20,000 g centrifugation the supernatant was analysed by SDS-PAGE and immunoblotting. Protein and lipid interaction assays Liposomes from total brain lipids (FOLCH fraction I) (Sigma Aldrich), from synthetic lipids (Avanti Polar Lipids), and liposomes of a specified diameter were generated as previously described10. Liposome binding assays for lipid specificity and curvature sensitivity was performed as previously described10. Briefly, proteins were incubated together with liposomes followed by centrifugation and analysis of the pellet and supernatant by SDS-PAGE and Coomassie staining. For immunoprecipitation experiments, rat brain cytosol was generated by homogenisation of rat brains in buffer (25 mM HEPES, 150 mM NaCl, 1 mM DTT, 0.1% Triton X-100 and protease inhibitors), before centrifugation at 50,000 rpm for 30 mins at 4i ? C. The supernatant was removed and added to protein A Sephorose 4B beads (Amersham Biosciensis) to which antibodies had been previously bound and incubated at 4° C. for 3 hrs. Beads were washed three times in buffer (25 mM HEPES, 150 mM NaCl) supplemented with 1% NP-40, and once in buffer without NP-40 before analysis by SDS-PAGE combined with immunoblotting or Coomassie staining. Pull-down experiments against rat brain cytosol using purified proteins and identification by mass-spectrometry were performed as previously described27. In vitro liposome tubulation assays were performed and analysed as previously described 10. Cell culture and transfections HeLa cells were grown in RPM1 1640 media (GIBCO) supplemented with L-Glutamine and 10% fetal bovine serum and transfected using Genejuice (Novagen) for transient protein expression. For primary cultures, rat hippocampal neurons/astrocytes were prepared by trypsin digestion and mechanical trituration from E18 or P1 Sprague-Dawley rats and plated onto poly L-lysine coated coverslips. Cells were cultured in B27-supplemented Neurobasal media. For GRAF1 depletion, HeLa cells were transfected with stealth siRNAs specific against human GRAF1 (Invitrogen) using Lipofectamine 2000 (Invitrogen) according to manufacturers instructions. Cells were cultured for an additional 48 hrs for efficient silencing of the GRAF1 expression. Stealth Block-it siRNA (Invitrogen) was used as a control. AP2 siRNA was used as previously described28. […]

HeLa cells [2] = experiment: tubular dextran uptake by immunofluorescence; assay type: cell-based, human; settings: 50 um dynasore 15 minutes before dextran, further 15 minutes
Protocol: FIG. 8 GRAF1 mediated trafficking is dependent upon dynamin and small G-proteins. a, HeLa cells incubated either with medium including vehicle (DMSO) or 50 um dynasore for 15 minutes before addition of dextran to these, cells for a further 15 minutes, (with DMSO/dynasore concentrations being retained throughout), before fixation and staining for GRAF1, dextran and paxillin. […] Note the absence of GRAF1-positive tubules in transfected cells. Scale bars=10 um.
Protein expression and purification Antibodies and constructs used are described in supplemental methods. Recombinant proteins were expressed in a BL21 (DE3) pLysS E-coli strain as Glutathione Stransferase (GST)-fusion proteins and purified using glutathione-Sepharose 4B beads (Amersham Biosciences) and gel filtration on a sephacryl S-200 column (Amersham) as previously described27. For analysis of endogenous protein expression, cell lines were grown according to instructions from American Tissue Culture Collection, harvested and lysed in 1% NP-40 in PBS supplemented with protease inhibitors. After a 20,000 g centrifugation the supernatant was analysed by SDS-PAGE and immunoblotting. […] In vitro liposome tubulation assays were performed and analysed as previously described 10. […]

[3] = test system: GRAF1 BAR+PH overexpressing cells; experiment: localisation of overexpressed GFP-tagged GRAF1 BAR+PH protein, confocal microscopy; assay type: cell-based; settings: 1 uM nocodazole for 1 hr
Text: FIG. 9 Membrane tubules generated by the GRAF1 BAR+PH domain in vivo are mobile structures dependent upon microtubules. a, Representative Coomassie-stained gel of a typical liposome co-sedimentation assay with GST-tagged BAR+PH and liposomes of different diameters quantified in FIG. 2a (P=pellet, S=supernatant). b, Confocal micrographs showing the tubular localisation of overexpressed myc-tagged BAR+PH protein in HeLa cells and the cytoplasmic localisation of a similarly overexpressed protein with a BAR domain mutation (KK131/132EE). Scale bars=10 um. c, Electron micrographs of negatively-stained liposomes incubated in the presence or absence of GST-tagged GRAF1 BAR+PH protein. Note the presence of tubular structures present with BAR+PH protein and their absence in the control incubation. Scale bars=200 nm. d, Confocal micrographs of cells overexpressing GFP-tagged GRAF1 BAR+PH protein left untreated (Panel 1) or treated with 1 uM nocodazole for 1 hr and fixed immediately (Panel 2) or left to recover for 30 mins after nocodazole washout (Panel 3). Cells were then stained for beta-tubulin (lower images). GRAF1 BAR+PH-positive tubular structures were not present in nocodazole treated cells but recovered after nocodazole washout where they are observed to colocalise with beta-tubulin. e, Live cell spinning disc confocal imaging of a GFP-tagged GRAF1 BAR+PHover expressing cell at 20° C. […]

[4] = acute ischaemic stroke; cited from earlier work

SMILES: O=C(N/N=C/c1ccc(O)c(O)c1)c1cc2ccccc2cc1O [dynasore]
- GRAF1-positive tubular structures / GRAF1 distribution (HeLa cells [1]; 50 um dynasore): redistribute from tubular endocytic membranes to basal complexes; also recorded: reduction in GRAF1-positive tubular structures; also recorded: redistributed in these cells from tubular structures to basal punctae and rings
- tubular dextran uptake (HeLa cells [2]): loss of tubular endocytosis through the CLIC/GEEC pathway; also recorded: profound reduction in tubular dextran uptake; also recorded: profoundly reduced ability to endocytose dextran in tubular structures

SMILES: COC(=O)Nc1nc2ccc(C(=O)c3cccs3)cc2[nH]1 [nocodazole]
- GRAF1 BAR+PH-positive tubular structures [3]: not present; also recorded: abolishes the tubular localisation

SMILES: O=S(=O)(c1cccc2cnccc12)N1CCCNCC1 [fasudil]
- toxicity in clinical trials [4]: non-toxic

SMILES: C[C@@H](N)[C@H]1CC[C@H](C(=O)Nc2ccncc2)CC1 [Y-27632]
- colocalisation of GRAF1 with focal complex markers (HeLa cells [1]): vinculin is found mostly in focal complexes where it co-localises with GRAF1
- number of GRAF1-positive tubules (HeLa cells [1]): increases the number of GRAF1-positive tubules
- colocalisation of GRAF1 with focal complex markers (HeLa cells [1]; listed as Rho kinase inhibitor): increased the colocalisation of GRAF1 with 1-integrin, vinculin and dynamin
- number of GRAF1-positive tubules (HeLa cells [1]; listed as Rho kinase inhibitor): dramatically increased the numbers of GRAF1-positive tubules
